{"source": "the supplement of paper PMC10307832", "assay_in_all_cases": "relative viability (nuclei count vs DMSO), 5 days (fraction); higher = more cells survive", "key": {"NCI-H1666": {"test_system": "NCI-H1666", "summary_of_the_method": "(§1)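 Relative viability is defined as nuclei in treated wells over nuclei in vehicle wells. Duplicate plates were run and medians reported. Lung cancer cell lines in 1536-well plates were dosed by pin tool one day after seeding, with one drug or with a fixed anchor-drug dose plus five library-drug doses (not always all listed) in √10 steps, and nuclei were counted after 5 days.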"}, "H3255": {"test_system": "H3255", "summary_of_the_method": "as §1"}, "NCI-H1755": {"test_system": "NCI-H1755", "summary_of_the_method": "as §1"}, "NCI-H1650": {"test_system": "NCI-H1650", "summary_of_the_method": "as §1"}, "A-427": {"test_system": "A-427", "summary_of_the_method": "as §1"}, "ChaGo-K-1": {"test_system": "ChaGo-K-1", "summary_of_the_method": "as §1"}, "NCI-H838": {"test_system": "NCI-H838", "summary_of_the_method": "as §1"}, "NCI-H2228": {"test_system": "NCI-H2228", "summary_of_the_method": "as §1"}, "SW 1573": {"test_system": "SW 1573", "summary_of_the_method": "as §1"}, "NCI-H1944": {"test_system": "NCI-H1944", "summary_of_the_method": "as §1"}, "NCI-H520": {"test_system": "NCI-H520", "summary_of_the_method": "as §1"}, "NCI-H2347": {"test_system": "NCI-H2347", "summary_of_the_method": "as §1"}, "NCI-H460": {"test_system": "NCI-H460", "summary_of_the_method": "as §1"}, "NCI-H2085": {"test_system": "NCI-H2085", "summary_of_the_method": "as §1"}, "NCI-H1355": {"test_system": "NCI-H1355", "summary_of_the_method": "as §1"}, "NCI-H441": {"test_system": "NCI-H441", "summary_of_the_method": "as §1"}, "NCI-H322M": {"test_system": "NCI-H322M", "summary_of_the_method": "as §1"}, "EKVX": {"test_system": "EKVX", "summary_of_the_method": "as §1"}, "NCI-H3122": {"test_system": "NCI-H3122", "summary_of_the_method": "as §1"}, "LK-2": {"test_system": "LK-2", "summary_of_the_method": "as §1"}, "NCI-H650": {"test_system": "NCI-H650", "summary_of_the_method": "as §1"}, "NCI-H358": {"test_system": "NCI-H358", "summary_of_the_method": "as §1"}, "NCI-H596": {"test_system": "NCI-H596", "summary_of_the_method": "as §1"}}}
{"compound": "Cc1cnc(-c2cnc(NCCNc3ccc(C#N)cn3)nc2-c2ccc(Cl)cc2Cl)[nH]1", "note": "+ COc1cc2c(Oc3ccc(NC(=O)C4(C(=O)Nc5ccc(F)cc5)CC4)cc3F)ccnc2cc1OCCCN1CCOCC1 [Foretinib] (partner 0.25 µM)", "values": [{"measurement": "relative viability", "setting": "NCI-H1666; first compound 0.08 µM", "value": 0.934}, {"measurement": "relative viability", "setting": "NCI-H1666; first compound 0.253 µM", "value": 0.906}, {"measurement": "relative viability", "setting": "NCI-H1666; first compound 0.8 µM", "value": 0.995}, {"measurement": "relative viability", "setting": "NCI-H1666; first compound 2.53 µM", "value": 0.924}, {"measurement": "relative viability", "setting": "H3255; first compound 0.08 µM", "value": 0.956}, {"measurement": "relative viability", "setting": "H3255; first compound 0.253 µM", "value": 0.696}, {"measurement": "relative viability", "setting": "H3255; first compound 0.8 µM", "value": 0.988}, {"measurement": "relative viability", "setting": "H3255; first compound 2.53 µM", "value": 0.841}, {"measurement": "relative viability", "setting": "NCI-H1755; first compound 0.08 µM", "value": 0.936}, {"measurement": "relative viability", "setting": "NCI-H1755; first compound 0.253 µM", "value": 0.808}, {"measurement": "relative viability", "setting": "NCI-H1755; first compound 0.8 µM", "value": 0.982}, {"measurement": "relative viability", "setting": "NCI-H1755; first compound 2.53 µM", "value": 0.972}, {"measurement": "relative viability", "setting": "NCI-H1650; first compound 0.08 µM", "value": 1.37}, {"measurement": "relative viability", "setting": "NCI-H1650; first compound 0.253 µM", "value": 1.22}, {"measurement": "relative viability", "setting": "NCI-H1650; first compound 0.8 µM", "value": 1.25}, {"measurement": "relative viability", "setting": "NCI-H1650; first compound 2.53 µM", "value": 1.01}, {"measurement": "relative viability", "setting": "A-427; first compound 0.08 µM", "value": 1.13}, {"measurement": "relative viability", "setting": "A-427; first compound 0.253 µM", "value": 1.01}, {"measurement": "relative viability", "setting": "A-427; first compound 0.8 µM", "value": 0.861}, {"measurement": "relative viability", "setting": "A-427; first compound 2.53 µM", "value": 1.07}, {"measurement": "relative viability", "setting": "ChaGo-K-1; first compound 0.08 µM", "value": 0.941}, {"measurement": "relative viability", "setting": "ChaGo-K-1; first compound 0.253 µM", "value": 0.84}, {"measurement": "relative viability", "setting": "ChaGo-K-1; first compound 0.8 µM", "value": 0.945}, {"measurement": "relative viability", "setting": "ChaGo-K-1; first compound 2.53 µM", "value": 0.921}, {"measurement": "relative viability", "setting": "NCI-H838; first compound 0.08 µM", "value": 1.04}, {"measurement": "relative viability", "setting": "NCI-H838; first compound 0.253 µM", "value": 1.02}, {"measurement": "relative viability", "setting": "NCI-H838; first compound 0.8 µM", "value": 1.15}, {"measurement": "relative viability", "setting": "NCI-H838; first compound 2.53 µM", "value": 1.21}, {"measurement": "relative viability", "setting": "NCI-H2228; first compound 0.08 µM", "value": 0.954}, {"measurement": "relative viability", "setting": "NCI-H2228; first compound 0.253 µM", "value": 0.761}, {"measurement": "relative viability", "setting": "NCI-H2228; first compound 0.8 µM", "value": 0.898}, {"measurement": "relative viability", "setting": "NCI-H2228; first compound 2.53 µM", "value": 0.589}, {"measurement": "relative viability", "setting": "SW 1573; first compound 0.08 µM", "value": 0.929}, {"measurement": "relative viability", "setting": "SW 1573; first compound 0.253 µM", "value": 0.87}, {"measurement": "relative viability", "setting": "SW 1573; first compound 0.8 µM", "value": 0.907}, {"measurement": "relative viability", "setting": "SW 1573; first compound 2.53 µM", "value": 0.769}, {"measurement": "relative viability", "setting": "NCI-H1944; first compound 0.08 µM", "value": 0.885}, {"measurement": "relative viability", "setting": "NCI-H1944; first compound 0.8 µM", "value": 0.902}, {"measurement": "relative viability", "setting": "NCI-H1944; first compound 2.53 µM", "value": 0.91}, {"measurement": "relative viability", "setting": "NCI-H520; first compound 0.08 µM", "value": 0.71}, {"measurement": "relative viability", "setting": "NCI-H520; first compound 0.253 µM", "value": 0.593}, {"measurement": "relative viability", "setting": "NCI-H520; first compound 0.8 µM", "value": 0.918}, {"measurement": "relative viability", "setting": "NCI-H520; first compound 2.53 µM", "value": 1.04}, {"measurement": "relative viability", "setting": "NCI-H2347; first compound 0.08 µM", "value": 0.963}, {"measurement": "relative viability", "setting": "NCI-H2347; first compound 0.253 µM", "value": 1.11}, {"measurement": "relative viability", "setting": "NCI-H2347; first compound 0.8 µM", "value": 0.877}, {"measurement": "relative viability", "setting": "NCI-H2347; first compound 2.53 µM", "value": 0.841}, {"measurement": "relative viability", "setting": "NCI-H460; first compound 0.08 µM", "value": 1.1}, {"measurement": "relative viability", "setting": "NCI-H460; first compound 0.253 µM", "value": 0.947}, {"measurement": "relative viability", "setting": "NCI-H460; first compound 0.8 µM", "value": 0.981}, {"measurement": "relative viability", "setting": "NCI-H460; first compound 2.53 µM", "value": 0.885}, {"measurement": "relative viability", "setting": "NCI-H2085; first compound 0.08 µM", "value": 0.989}, {"measurement": "relative viability", "setting": "NCI-H2085; first compound 0.253 µM", "value": 0.88}, {"measurement": "relative viability", "setting": "NCI-H2085; first compound 0.8 µM", "value": 0.762}, {"measurement": "relative viability", "setting": "NCI-H2085; first compound 2.53 µM", "value": 0.937}, {"measurement": "relative viability", "setting": "NCI-H1355; first compound 0.08 µM", "value": 0.901}, {"measurement": "relative viability", "setting": "NCI-H1355; first compound 0.253 µM", "value": 0.867}, {"measurement": "relative viability", "setting": "NCI-H1355; first compound 0.8 µM", "value": 0.97}, {"measurement": "relative viability", "setting": "NCI-H1355; first compound 2.53 µM", "value": 0.96}, {"measurement": "relative viability", "setting": "NCI-H441; first compound 0.08 µM", "value": 1.2}, {"measurement": "relative viability", "setting": "NCI-H441; first compound 0.253 µM", "value": 0.926}, {"measurement": "relative viability", "setting": "NCI-H441; first compound 0.8 µM", "value": 1.01}, {"measurement": "relative viability", "setting": "NCI-H441; first compound 2.53 µM", "value": 0.958}, {"measurement": "relative viability", "setting": "NCI-H322M; first compound 0.08 µM", "value": 1.07}, {"measurement": "relative viability", "setting": "NCI-H322M; first compound 0.253 µM", "value": 0.856}, {"measurement": "relative viability", "setting": "NCI-H322M; first compound 0.8 µM", "value": 1}, {"measurement": "relative viability", "setting": "NCI-H322M; first compound 2.53 µM", "value": 1.2}, {"measurement": "relative viability", "setting": "EKVX; first compound 0.08 µM", "value": 0.588}, {"measurement": "relative viability", "setting": "EKVX; first compound 0.253 µM", "value": 0.555}, {"measurement": "relative viability", "setting": "EKVX; first compound 0.8 µM", "value": 0.626}, {"measurement": "relative viability", "setting": "EKVX; first compound 2.53 µM", "value": 0.727}, {"measurement": "relative viability", "setting": "NCI-H3122; first compound 0.08 µM", "value": 0.943}, {"measurement": "relative viability", "setting": "NCI-H3122; first compound 0.8 µM", "value": 0.935}, {"measurement": "relative viability", "setting": "NCI-H3122; first compound 2.53 µM", "value": 0.914}, {"measurement": "relative viability", "setting": "LK-2; first compound 0.08 µM", "value": 1.6}, {"measurement": "relative viability", "setting": "LK-2; first compound 0.253 µM", "value": 0.82}, {"measurement": "relative viability", "setting": "LK-2; first compound 0.8 µM", "value": 0.942}, {"measurement": "relative viability", "setting": "LK-2; first compound 2.53 µM", "value": 1.21}, {"measurement": "relative viability", "setting": "NCI-H650; first compound 0.08 µM", "value": 1.07}, {"measurement": "relative viability", "setting": "NCI-H650; first compound 0.253 µM", "value": 0.994}, {"measurement": "relative viability", "setting": "NCI-H650; first compound 0.8 µM", "value": 1.09}, {"measurement": "relative viability", "setting": "NCI-H650; first compound 2.53 µM", "value": 1.03}, {"measurement": "relative viability", "setting": "NCI-H358; first compound 0.08 µM", "value": 0.735}, {"measurement": "relative viability", "setting": "NCI-H358; first compound 0.253 µM", "value": 0.597}, {"measurement": "relative viability", "setting": "NCI-H358; first compound 0.8 µM", "value": 0.404}, {"measurement": "relative viability", "setting": "NCI-H358; first compound 2.53 µM", "value": 0.509}, {"measurement": "relative viability", "setting": "NCI-H596; first compound 0.08 µM", "value": 0.929}, {"measurement": "relative viability", "setting": "NCI-H596; first compound 0.253 µM", "value": 0.776}, {"measurement": "relative viability", "setting": "NCI-H596; first compound 0.8 µM", "value": 0.872}, {"measurement": "relative viability", "setting": "NCI-H596; first compound 2.53 µM", "value": 0.827}]}
